Consider seven molecules from PMC12192727, “Strategies to Develop Na,K-ATPase-α4 Inhibitors as Male Contraceptives” (International Journal of Molecular Sciences, 2025).

Each structure is given as a SMILES string. In brackets after ≈: the same amount, converted by molar mass.

A short description of series [1]: Solubility as noted when testing was attempted. It is filed as physicochemical.
A short description of series [2]: Caco-2 cell permeability. It is filed as in vitro ADME, human. The conditions noted are these: human; for Papp A→B / recovery: Caco-2, Caco-2 cells; for Papp A→B: read-out: Papp (A-B); for Papp B→A / efflux ratio: Caco-2 cells; for efflux ratio: Papp(B-A)/Papp(A-B). The protocol: The in vitro permeability and potential to be transported by P-gp (P-glycoprotein) were determined in a Caco-2 or MDCK cell line. Values are reported for a mass recovery > 60%. The efflux ratio was determined as follows: P^app(B-A)/Papp(A-B). The experimental details are reported in the Supporting Information (Tables S2–S5).
The recovery can be determined using the following equation:
Recovery%=(VA×[drug]acceptor+VD×[drug]donor)/(VD×[drug]initial, donor)
Where VA is the volume (in mL) in the acceptor well (0.235 mL for Ap→Bl flux, and 0.075 mL for
Bl→Ap), VD is the volume (in mL) in the donor well (0.075 mL for Ap→Bl flux, and 0.235 mL for
The leakage of Lucifer Yellow, in unit of percentage (%), can be calculated using the following
%LY leakage = 100×[LY]acceptor×0.3/([LY]donor×0.1+[LY]acceptor×0.3)
LY leakage of <1% is acceptable to indicate the well-qualified MDCK/ Caco-2 monolayer.
Table S5 . The Assessment of Caco-2 Cell Monolayer Integrity
The apparent permeability coefficient (Papp), Efflux ratio (ER), recovery percentage, and LY leakage percentage can be
calculated for Caco-2 Cell drug transport assays using the above equations. […]
(Passage across Caco-2 layers is used to estimate intestinal permeability.)

Series [3] is described as follows: MDCK cell permeability. The conditions noted are these: dog, MDCK; for Papp A→B / recovery: MDCK cells; for Papp A→B: BSA 0% for controls, 0.5% for 13.
The nature of series [4]: physchem. The series is classed as physicochemical. The conditions noted are these: PBS pH 7.4; read-out: Solubility. The protocol:
The stock solutions of 11 and 45 were prepared in DMSO at a concentration of 30 mM, and the stock solution of the control compound was prepared in DMSO at a concentration of 30 mM. Progesterone was used as a positive control in the assay. An amount of 10 µL of stock solution of each compound was placed in order into their proper 96-well rack, followed by adding 990 µL of PBS at pH 7.4 into each vial of the capless Solubility Sample plate. This study was performed in duplicate. One stir stick was added to each vial and then sealed using a molded PTDE/SIL 96-Well Plate Cover (Pharmaron, Waltman, MA, USA). The Solubility Sample plate was transferred to the Thermomixer Comfort plate shaker and incubated at RT for 2 h with shaking at 1100 rpm. After 2 h of incubation, stir sticks were removed using a big magnet, and all samples from the Solubility Sample plate were transferred into the filter plate. All the samples were filtered using a vacuum manifold. The filtered samples were diluted with methanol. The soluble fraction (filtrate) was then analyzed by LC-MS/MS, and the compound concentration was determined using 0.3 μM standard solutions prepared from DMSO stocks. The experimental details are reported in the Supporting Information (Table S1). […]
Table S1 . Solubility Results of Test C ompound and Control C ompound in […]
Compound ID Solubility (µM)
Preparation of Stock Solutions: The stock solutions of test compounds were prepared in DMSO at the concentration of 30 mM, and the stock solution of control compound was prepared in DMSO at the concentration of 30 mM.
Progesterone was used as positive control in the assay.
Solubility Determination: 10 µL stock solution of each compound was placed in order into their proper 96-well rack, followed by adding 990 µL of PBS at pH 7.4 into each vial of the cap-less Solubility Sample plate. This study was performed in duplicate. One stir stick was added to each vial and then vials were sealed using a molded PTDE/SIL 96-Well Plate Cover. The Solubility Sample plate was transferred to the Thermomixer Comfort plate shaker and incubated at RT for 2 hours with shaking at 1100 rpm. After 2 hours incubation, stir sticks were removed using a big magnet and all samples from the Solubility Sample plate were transferred into the filter plate. All the samples were filtered by using the Vacuum Manifold. The filtered samples were diluted with methanol. The dilution factor might be changed according to the solubility value and the LC/MS signal response. To prepare 0.3 µM Standards (STD), 30 mM DMSO compound stock solutions were diluted with DMSO to 300 µM and then diluted with methanol to obtain 0.3 µM STDs. Samples were analyzed by LC-MS/MS. All calculations were carried out using Microsoft Excel. The solution filtered was analyzed and quantified against a standard of known concentration in DMSO using LC coupled with Mass spectral peak identification and quantitation. The solubility values of the test compounds were calculated as follow DF means the dilution factor
1. Chromatographic conditions
Apparatus: Triple QuadTM 5500 instrument from AB Inc (Canada) with an ESI interface Column: XSelect Hss T3 2.5µ (2.1×50 mm) Column XP coupled with preguard column Mobile phase: 0.1% formic acid in acetonitrile (A) and 0.1% formic acid in water (B) […]

`CC12CCC(=O)C=C1CCCC2c1cn(Cc2ccccc2)nn1` (stereo not drawn) [Compound 39, 5-(1-Benzyl-1H-1,2,3-triazol-4-yl)-4a-methyl-4,4a,5,6,7,8-hexahydronaphthalen-2(3H)-one]: in series [1], the “Solubility (in words, precluded testing)” value was “poor solubility”.
A word on the Papp A→B: it is the apparent permeability from the apical to the basolateral side of a cell layer. As usually defined, the Papp B→A is the apparent permeability from the basolateral to the apical side of a cell layer. What is called efflux ratio is a quotient of directional permeabilities that is used to spot active efflux. Take `C[C@H]1O[C@@H](O[C@H]2[C@@H](O)C[C@H](O[C@H]3[C@@H](O)C[C@H](O[C@H]4CC[C@@]5(C)[C@H](CC[C@@H]6[C@@H]5C[C@@H](O)[C@]5(C)[C@@H](C7=CC(=O)OC7)CC[C@]65O)C4)O[C@@H]3C)O[C@@H]2C)C[C@H](O)[C@@H]1O` [Digoxin]: the Papp A→B is 0.63 ×10⁻⁶ cm/s in series [2] and 1.01 ×10⁻⁶ cm/s in series [3]. Further, the recovery was determined as 88.7% in series [2] (read-out: Recovery (%) AP-BL), 107% in series [2] (read-out: Recovery (%) BL-AP), 84% in series [3] (Recovery (%) AP-BL) and 106% in series [3] (Recovery (%) BL-AP). The results for the Papp B→A in series [2] and in series [3] were 18.8 ×10⁻⁶ cm/s and 3.29 ×10⁻⁶ cm/s, respectively. The efflux ratio in series [2] is 30; in series [3] it was 3.26.
On to `CC(C)NCC(O)COc1cccc2ccccc12` (stereo not drawn) [Propranolol], for which, in series [2], the Papp A→B was found to be 24.4 ×10⁻⁶ cm/s, the Papp B→A turned out to be 16.4 ×10⁻⁶ cm/s and the efflux ratio stood at 0.67. In series [2] (read-out: Recovery (%) AP-BL), the recovery stood at 72.8%. Moreover, in series [2] (read-out: Recovery (%) BL-AP), the recovery was 86.6%.
In the case of `COCCc1ccc(OCC(O)CNC(C)C)cc1` (stereo not drawn) [Metoprolol], in series [3], the Papp B→A is 17 ×10⁻⁶ cm/s, the efflux ratio amounted to 0.79 and the Papp A→B is 21.6 ×10⁻⁶ cm/s. Further, the recovery in series [3] (Recovery (%) AP-BL) worked out at 83.5%. The same molecule showed a recovery in series [3] (Recovery (%) BL-AP) of 97.1%.
On to `C[C@]12CC[C@H]3[C@@H](CC=C4C[C@@H](O)CC[C@@]43C)[C@@H]1CC[C@@H]2n1cc(-c2ccccc2)nn1` [Compound 30, (3S,8R,9S,10R,13S,14S,17S)-10,13-Dimethyl-17-(4-phenyl-1H-1,2,3-triazol-1-yl)-2,3,4,7,8,9,10,11,12,13,14,15,16,17-tetradecahydro-1H-cyclopenta[a]phenanthren-3-ol], for which, in series [1], the “Solubility (in words, precluded testing)” value was “inadequate solubility”.
Usually Solubility stands for the dissolved amount per volume that the medium holds. Regarding `CC(=O)[C@H]1CC[C@H]2[C@@H]3CCC4=CC(=O)CC[C@]4(C)[C@H]3CC[C@]12C` [Progesterone, reference compound], the Solubility in series [4] is recorded as 18.0 µM (≈ 5.66 µg/mL).
Turning to `COc1cc2nc(N3CCN(C(=O)c4ccco4)CC3)nc(N)c2cc1OC` [Prazosin], in series [2], the apical-to-basolateral permeability (Papp A→B) came to 7.59 ×10⁻⁶ cm/s and the Papp B→A was 24.3 ×10⁻⁶ cm/s. In addition, the recovery in series [2] (read-out: Recovery (%) AP-BL) worked out at 71.4%. In addition, the recovery in series [2] (read-out: Recovery (%) BL-AP) is 85%.
